The supplement of paper PMC10307832

Experiments:
Assay in all cases: relative viability (nuclei count vs DMSO), 5 days (fraction); higher = more cells survive
[1] = compound: CC(C)=CC[C@@H](O)C1=CC(=O)c2c(O)ccc(O)c2C1=O [Shikonin] + Nc1nc2[nH]cc(CCc3ccc(C(=O)N[C@@H](CCC(=O)O)C(=O)O)cc3)c2c(=O)[nH]1 [Pemetrexed] (partner 0.2 µM)
Summary of the method: (§1)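 Relative viability is defined as nuclei in treated wells over nuclei in vehicle wells. Duplicate plates were run and medians reported. Lung cancer cell lines in 1536-well plates were dosed by pin tool one day after seeding, with one drug or with a fixed anchor-drug dose plus five library-drug doses (not always all listed) in √10 steps, and nuclei were counted after 5 days.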

[2] = compound: CC(C)N(CCCNC(=O)Nc1ccc(C(C)(C)C)cc1)C[C@H]1O[C@@H](n2ccc3c(N)ncnc32)[C@H](O)[C@@H]1O + COc1cccc2cc(-c3nc([C@H]4CC[C@H](C(=O)O)CC4)n4ncnc(N)c34)[nH]c12 [OSI-027] (partner 0.5 µM)
Summary of the method: as §1

[3] = compound: CC(C)N(CCCNC(=O)Nc1ccc(C(C)(C)C)cc1)C[C@H]1O[C@@H](n2ccc3c(N)ncnc32)[C@H](O)[C@@H]1O + Nc1ncn([C@H]2C[C@H](O)[C@@H](CO)O2)c(=O)n1 [Decitabine] (partner 2 µM)
Summary of the method: as §1

[4] = compound: CC(C)N(CCCNC(=O)Nc1ccc(C(C)(C)C)cc1)C[C@H]1O[C@@H](n2ccc3c(N)ncnc32)[C@H](O)[C@@H]1O + O=C(c1cc(Cc2n[nH]c(=O)c3ccccc23)ccc1F)N1CCN(C(=O)C2CC2)CC1 [Olaparib] (partner 8 µM)
Summary of the method: as §1

Cell Line	relative viability ([1]; first compound 0.01 µM)	relative viability ([1]; first compound 0.1 µM)	relative viability ([1]; first compound 0.3162 µM)	relative viability ([1]; first compound 1 µM)	relative viability ([2]; first compound 0.08 µM)	relative viability ([2]; first compound 0.253 µM)	relative viability ([2]; first compound 0.8 µM)	relative viability ([2]; first compound 2.53 µM)	relative viability ([2]; first compound 8 µM)	relative viability ([3]; first compound 0.08 µM)	relative viability ([3]; first compound 0.253 µM)	relative viability ([3]; first compound 0.8 µM)	relative viability ([3]; first compound 2.53 µM)	relative viability ([3]; first compound 8 µM)	relative viability ([4]; first compound 0.08 µM)	relative viability ([4]; first compound 0.253 µM)	relative viability ([4]; first compound 0.8 µM)	relative viability ([4]; first compound 2.53 µM)	relative viability ([4]; first compound 8 µM)
LC-2-ad	0.297	0.273	0.269	0.282	0.845	0.823	0.892	0.816	0.855	0.776	0.857	0.688	0.728	0.768	0.67	0.717	0.715	0.699	0.626
ChaGo-K-1	0.266	0.279	0.266	0.258	0.525	0.616	0.471	0.628	0.585	0.468	0.545	0.494	0.522	0.505	0.423	0.413	0.431	0.392	0.389
COR-L 105	1.1	1.09	1.05	1.02	0.682	0.581	0.664	0.427	0.648	0.631	0.67	0.736	0.638	0.694	0.678	0.724	0.702	0.652	0.649
NCI-H1975	0.315	0.298	0.286	0.283	0.729	0.672	0.403	0.577	0.598	0.367	0.44	0.273	0.354	0.376	0.745	0.82	0.68	0.649	0.538
NCI-H2009	1.11	1.06	1.09	1.05	0.641	0.722	0.702	0.599	0.587	0.476	0.418	0.438	0.39	0.372	0.723	0.643	0.644	0.629	0.64
SW 1573	0.946	0.947	0.589	0.143	0.501	0.679	0.635	0.683	0.705	0.464	–	0.636	0.512	0.543	0.464	–	0.517	0.441	0.53
NCI-H2347	0.471	0.479	0.402	0.44	0.459	0.427	0.413	0.574	0.509	0.529	0.688	0.616	0.664	0.432	0.525	0.593	0.534	0.655	0.548
HCC-366	0.172	0.185	0.161	0.15	0.916	1.27	0.716	0.816	0.641	0.359	0.335	0.317	0.294	0.352	0.336	0.428	0.328	0.292	0.281
EMC-BAC-2	0.44	0.503	0.453	0.422	0.384	0.485	0.42	0.412	0.355	0.939	1.02	1.07	1.09	0.96	0.486	0.513	0.472	0.389	0.435
NCI-H3122	0.215	0.219	0.209	0.209	0.897	1.02	0.925	0.926	0.722	0.445	0.467	0.462	0.409	0.481	0.684	0.632	0.536	0.663	0.512
NCI-H358	0.159	0.182	0.172	0.154	0.75	0.61	0.724	0.752	0.714	0.233	0.187	0.212	0.214	0.189	0.593	0.605	0.565	0.562	0.542
NCI-H1944	0.625	0.719	0.676	0.572	0.413	0.41	0.401	0.452	0.405	0.451	0.438	0.471	0.394	0.423	0.416	0.409	0.413	0.41	0.403
NCI-H1648	0.793	–	0.979	0.742	0.277	0.258	0.247	0.247	0.293	0.494	0.464	0.446	0.398	0.548	0.866	1	1.03	0.909	0.826
EPLC-272H	0.264	0.314	0.334	0.297	0.275	0.423	0.274	0.283	0.259	0.366	0.381	0.368	0.413	0.39	0.669	0.85	0.764	0.734	0.859
NCI-H1915	0.442	0.684	0.517	0.449	0.58	0.732	0.651	0.645	0.624	0.274	0.289	0.269	0.25	0.267	0.244	0.288	0.229	0.236	0.23
NCI-H650	0.87	0.987	1.13	0.857	0.485	0.63	0.602	0.468	0.504	0.338	0.372	0.335	0.315	0.324	0.376	0.468	0.305	0.32	0.328
NCI-H441	0.282	0.223	0.252	0.266	0.589	0.587	–	0.735	0.661	0.278	0.251	–	0.218	0.252	0.558	0.632	–	0.544	0.573

Cell Line	relative viability ([1]; first compound 0.01 µM)	relative viability ([1]; first compound 0.1 µM)	relative viability ([1]; first compound 0.3162 µM)	relative viability ([1]; first compound 1 µM)	relative viability ([2]; first compound 0.08 µM)	relative viability ([2]; first compound 0.253 µM)	relative viability ([2]; first compound 0.8 µM)	relative viability ([2]; first compound 2.53 µM)	relative viability ([2]; first compound 8 µM)	relative viability ([3]; first compound 0.08 µM)	relative viability ([3]; first compound 0.253 µM)	relative viability ([3]; first compound 0.8 µM)	relative viability ([3]; first compound 2.53 µM)	relative viability ([3]; first compound 8 µM)	relative viability ([4]; first compound 0.08 µM)	relative viability ([4]; first compound 0.253 µM)	relative viability ([4]; first compound 0.8 µM)	relative viability ([4]; first compound 2.53 µM)	relative viability ([4]; first compound 8 µM)
NCI-H23	0.662	0.832	0.704	0.766	0.594	0.596	0.574	0.681	0.645	0.311	–	0.327	0.298	0.331	0.334	–	0.266	0.345	0.28
NCI-H2342	0.808	0.852	0.809	0.804	0.736	0.643	0.611	0.61	0.607	0.667	0.649	0.655	0.815	0.713	0.4	0.463	0.419	0.431	0.444
NCI-H661	0.944	1.02	0.957	0.729	0.719	0.775	0.68	0.714	0.683	0.521	0.469	0.542	0.577	0.623	0.85	0.758	0.795	0.786	0.729
SK-MES-1	0.923	1.17	0.984	1.01	0.615	0.685	0.586	0.619	0.586	0.436	0.377	0.36	0.384	0.377	0.83	0.811	0.734	0.713	0.662
NCI-H2170	0.25	0.284	0.282	0.272	0.675	0.7	0.669	0.709	0.748	0.477	0.418	0.42	0.438	0.471	0.59	0.573	0.619	0.601	0.539
NCI-H2087	0.675	0.706	0.626	0.69	0.443	0.707	0.402	0.653	0.586	0.272	0.303	0.232	0.336	0.256	0.599	0.694	0.553	0.667	0.581
NCI-H1993	0.561	0.619	0.557	0.627	0.521	–	–	0.578	0.56	0.482	–	0.564	0.6	0.559	1.06	–	1.07	1.01	1.01
PC-14	0.15	0.137	0.125	0.135	0.826	0.802	0.786	0.872	0.745	0.191	0.246	0.215	0.231	0.206	0.303	0.249	0.281	0.257	0.247
NCI-H460	0.0561	0.0603	0.06	0.063	0.62	0.551	0.693	0.564	0.601	0.484	0.488	0.455	0.435	0.414	0.391	0.433	0.388	0.33	0.345
LOU-NH91	0.367	0.381	0.381	0.458	0.734	0.714	0.666	0.689	0.728	0.757	0.815	–	0.858	0.793	0.886	0.86	–	0.984	0.899
NCI-H322M	0.575	0.591	0.6	0.777	0.514	0.618	0.575	0.693	0.579	0.698	0.695	0.723	0.689	0.641	0.741	0.797	0.72	0.765	0.625
NCI-H596	0.502	0.536	0.414	0.475	0.672	–	0.507	0.829	0.748	1.03	0.975	1.03	1.19	0.988	0.667	0.67	0.531	0.704	0.723
NCI-H838	0.234	0.24	0.243	0.258	0.359	0.408	0.367	0.388	0.476	0.454	0.431	0.491	0.483	0.511	0.75	0.829	0.794	0.812	0.728
NCI-H1793	0.808	1.05	0.798	1.11	0.27	–	0.228	0.274	0.291	0.481	–	0.77	0.537	0.359	0.808	–	0.864	0.848	0.739
NCI-H1734	0.413	0.479	0.434	0.382	0.563	0.612	0.627	0.564	0.6	0.454	0.495	0.463	0.545	0.484	0.574	0.608	0.539	0.662	0.529
LXF-289	0.892	0.959	0.955	0.945	0.791	0.797	0.852	0.828	0.742	0.329	0.39	0.396	0.378	0.336	1.02	1.08	1.1	1.1	0.991
H3255	0.592	0.563	0.605	0.577	0.564	0.614	0.685	0.543	0.538	0.613	0.645	0.491	0.626	0.511	0.552	0.562	0.555	0.598	0.517
